Molecules are shown by their SMILES.

For six molecules, mortality results are on record in US4871719A, “Composition for controlling parasites in productive livestock” (Ciba-Geigy Corporation, priority 1987, dated 1989).

The subject of this assay is L1 larvae of Lucilia sericata. The assay can be described thus: Action against L1 larvae of Lucilia sericata. The format is in vivo. As to conditions: 96 h, read-out: action (mortality count). The protocol:
1 ml of an aqueous suspension of test compound is mixed with 3 ml of a special larval culture medium at about 50° C. such that a homogeneous composition containing 250 ppm or 125 ppm of active ingredient is obtained. About 30 Lucilia sericata larvae (L1) are put into each test tube sample. A mortality count is made after 4 days. The compounds of formula I, such as, for example, Nos. 3.2, 3.6, 3.7, 3.10, 3.34 and 3.38, achieved 100% action at 125 ppm.
On to `COC1CC[C@@]2(O1)/C(C)=C/C[C@@H]1C[C@@H](C[C@]3(CC[C@H](C)[C@@H](C(C)C)O3)O1)OC(=O)[C@@H]1C=C(C)[C@@H](O)[C@H]3OC/C(=C\C=C\[C@@H]2C)[C@]31O` (single isomer, unassigned) [Compound 3.2], for which the mortality at 125 ppm is 100%.

Regarding `CC1=C[C@H]2C(=O)O[C@H]3C[C@@H](C/C=C(\C)[C@]4(CCC(OC(C)C)O4)[C@@H](C)/C=C/C=C4\CO[C@H]([C@@H]1O)[C@@]42O)O[C@@]1(CC[C@H](C)[C@@H](C(C)C)O1)C3` (single isomer, unassigned) [Compound 3.10], the mortality at 125 ppm was 100%.

On to `CCOCCOC1CC[C@@]2(O1)/C(C)=C/C[C@@H]1C[C@@H](C[C@]3(CC[C@H](C)[C@@H](C(C)C)O3)O1)OC(=O)[C@@H]1C=C(C)[C@@H](O)[C@H]3OC/C(=C\C=C\[C@@H]2C)[C@]31O` (stereo partly drawn) [Compound 3.38], for which the mortality at 125 ppm came out at 100%.

On to `CCOC1CC[C@@]2(O1)/C(C)=C/C[C@@H]1C[C@@H](C[C@]3(CC[C@H](C)[C@@H](C(C)C)O3)O1)OC(=O)[C@@H]1C=C(C)[C@@H](O)[C@H]3OC/C(=C\C=C\[C@@H]2C)[C@]31O` (stereo partly drawn) [Compound 3.6], for which the mortality at 125 ppm was 100%.

As for `COCCOC1CC[C@@]2(O1)/C(C)=C/C[C@@H]1C[C@@H](C[C@]3(CC[C@H](C)[C@@H](C(C)C)O3)O1)OC(=O)[C@@H]1C=C(C)[C@@H](O)[C@H]3OC/C(=C\C=C\[C@@H]2C)[C@]31O` (single isomer, unassigned) [Compound 3.34], the mortality at 125 ppm worked out at 100%.

Take `CCCOC1CC[C@@]2(O1)/C(C)=C/C[C@@H]1C[C@@H](C[C@]3(CC[C@H](C)[C@@H](C(C)C)O3)O1)OC(=O)[C@@H]1C=C(C)[C@@H](O)[C@H]3OC/C(=C\C=C\[C@@H]2C)[C@]31O` (single isomer, unassigned) [Compound 3.7]: the mortality at 125 ppm turned out to be 100%.
